This is an account of results in patent US10993935B2, “Compositions and methods for treatment of lung infections” (priority 2018, dated 2021).

SMILES strings stand for the structures.

Series [1] has as its system P. aeruginosa biofilms. Kind of series: Biofilm reduction assay (crystal violet). In kind it is cell-based, Pseudomonas aeruginosa. To be noted: PAO1, CF001, CF010; 24 h biofilms treated at 3×MIC. The method, then: (§1) FIGS. 3A-3B include graphs showing biofilm and cell viability reduction from treatment with TOB and/or RFX, where (FIG. 3A) biofilms were grown for 24 h in a 96-well plate and then treated with TOB, RFX, or TOB and RFX at a concentration of 3×MIC, or where (FIG. 3B) biofilms were grown for 24 h in a 96-well plate and then treated with TOB, RFX, or TOB and RFX at concentration of 3×MIC. Two-way ANOVA analysis was used with statistical significance set as a P value of <0.01 (****, P<0.0001; **, P<0.001; *, P<0.01).
Biofilm Reduction Assay. A biofilm reduction assay was used to determine the reduction of biofilms in P. aeruginosa strains by TOB and/or RFX. Briefly, biofilms were grown in a flat bottom 96-well microplate (Corning) using 200 μl LB of 1.0-1.5×10^5 inoculum of lab and clinical strains of non-mucoid and mucoid P. aeruginosa. After 24-30 h incubation at 37° C., the media was removed, and plates were washed with PBS. New media containing 1-5×MIC90 of TOB and/or RFX was added to the plate in a checkerboard pattern to determine synergy of biofilm reduction. After 24 h incubation at 37° C., the media was removed and 200 μl of 0.1% aqueous crystal violet was added and left at room temperature 0.5 h. […] The plates were then read via OD at 595 nm using SpectraMax i3x plate reader to compare biofilm dispersion between TOB and/or RFX. […]

Series [2] deals with P. aeruginosa biofilms. Kind of series: Viable cell assay in preformed biofilms (MTT). In kind it is cell-based, Pseudomonas aeruginosa. To be noted: PAO1, CF001, CF010; 24 h biofilms treated at 3×MIC. The method, then: as §1
Viable Cell Assay. Viable cell counts were done to determine the reduction of viable cells in preformed biofilms treated with TOB and/or RFX. Briefly, following biofilm reduction protocol, biofilms were grown in a flat bottom 96-well microplate (Corning) using 200 μl LB of 1.0-1.5×10^5 inoculum of lab and clinical strains of non-mucoid and mucoid P. aeruginosa for 24 h at 37° C. After incubation, the media was removed, and plate was washed with PBS twice. New LB media containing 1-5×MIC90 of TOB and/or RFX was added to the plate in a checkerboard pattern. After 24 h growth at 37° C., the media was removed and replaced with methylthiazoltetrazolium (MTT; Sigma). After 1 h incubation, DMSO was added and plates were read via OD at 570 nm using SpectraMax i3x plate reader to determine viable cell differences between TOB and/or RFX. […]

Series [3] is described as follows: Solubility of RFX in nebulization solvents. In kind it is physicochemical. The method, then:
As treatment for traveler's diarrhea, RFX is a drug optimized for oral use. For RFX to be useful as a treatment for CF patients, it was determined whether RFX could be delivered to the lungs through nebulization. Nebulizing RFX was initially unsuccessful and more difficult than presumed. […] RFX was not soluble in water-based solutions, but was soluble in dimethyl-sulfoxide (DMSO) and ETOH (ethanol) in small volumes. […] However, 100% DMSO could be used to retain RFX in solution and deliver to the lungs as noted by HPLC data.

Series [4] deals with clinical mucoid isolate from a CF patient. Kind of series: Further test of screen hits on a clinical mucoid isolate. In kind it is cell-based, Pseudomonas aeruginosa. To be noted: compared with the other screen hits of Table 2.
Series [5] relates to promoter PalgD of the alginate biosynthetic operon. The series can be described thus: PalgD-lacZ promoter reporter (β-galactosidase) activity. In kind it is cell-based, Pseudomonas aeruginosa. To be noted: PAO581, CF001, CF010; MIC1, MIC10, MIC30, MIC50 on PIA, 37° C., 24 h. The method, then: FIGS. 2A-2C include graphs showing RFX versus TOB mediated inhibition of the promoter PalgD activity of the alginate biosynthetic operon in laboratory and clinical isolates of P. aeruginosa. The β-galactosidase activity of PalgD was measured using the pLP170-PalgD-lacZ reporter construct in PAO581 (FIG. 2A), CF001 (FIG. 2B), and CF010 (FIG. 2C) grown on PIA plates with increasing concentrations of RFX or TOB (MIC1, MIC10, MIC30, MIC50) at 37° C. for 24 h. Relative expression mean values are shown ±SE of triplicate determinations. Two-way ANOVA was used to determine statistical significance set at a P value of <0.01 (****, P<0.0001).
While RFX inhibits alginate production, additional experiments were conducted to determine whether the inhibition was specific to alginate or whether it was a global suppression of transcription. To test this, the promoter reporter constructs PalgD_lacZ in pLP170 were used to quantify the promoter activity of the alginate biosynthetic operon PalgD. A promoter-less empty vector pLP170-lacZ was used as a negative control. Using the β-galactosidase reporter activity, the activity of PalgD in PAO581 was quantified (FIG. 2A), and two mucoid isolates (CF001 and CF010) from CF patients.

For `NC[C@H]1O[C@H](O[C@H]2[C@H](O)[C@@H](O[C@H]3O[C@H](CO)[C@@H](O)[C@H](N)[C@H]3O)[C@H](N)C[C@@H]2N)[C@H](N)C[C@@H]1O` [TOB, tobramycin], the “reduction of preformed biofilm (biofilm aggregates)” value with P. aeruginosa biofilms [1] is on record as “significantly reduced biofilm as compared to the untreated control”. In the series with P. aeruginosa biofilms [2], the “viable cells in a preformed biofilm” value is on record as “significantly reduced the number of viable cells”.
As to `CO[C@H]1/C=C/O[C@@]2(C)Oc3c(C)c(O)c4c(O)c(c5c(nc6cc(C)ccn65)c4c3C2=O)NC(=O)/C(C)=C\C=C\[C@H](C)[C@H](O)[C@@H](C)[C@@H](O)[C@@H](C)[C@H](OC(C)=O)[C@@H]1C` [RFX, rifaximin], the solubility result in series [3] (in 20%, 40%, and 80% DMSO in PBS, came out of solution on nebulization) is “partially or fully dissolve”; in series [3] (in DMSO), “readily soluble”; in series [3] (in PBS or saline), “did not dissolve”; in series [3] (in dimethyl-sulfoxide (DMSO) and ETOH (ethanol) in small volumes) it was “soluble”; in series [3] (in water) it was “only sparingly soluble”; in series [3] (in water-based solutions), “not soluble”. Further, the “inhibition of growth and mucoidy” value in series [4] is “most effective drug to inhibit the growth and mucoidy”. For the same compound, the “PalgD promoter activity (β-galactosidase reporter)” value in series [5] is listed as “more pronounced effect on promoter activity than TOB”.
